Test results published in PubChem BioAssay (NCI).
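Compound exposure: 48 hours, 5 concentrations, 96-well plates. TGI: total growth inhibition.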

Assays:
Test in all cases: inhibition of tumour cell growth, NCI panel, 48 h
[1] = system: HCT-15 colon
[2] = system: OVCAR-4 ovarian
[3] = system: TK-10 renal
[4] = system: PC-3 prostate
[5] = system: ACHN renal
[6] = system: SW-620 colon
[7] = system: DU-145 prostate
[8] = system: MDA-N
[9] = system: HOP-62 NSCLC
[10] = system: A498 renal
[11] = system: LOX IMVI melanoma
[12] = system: SK-MEL-2 melanoma
[13] = system: HOP-92 NSCLC
[14] = system: SK-MEL-28 melanoma
[15] = system: HT29 colon
[16] = system: UO-31 renal
[17] = system: MDA-MB-231 breast
[18] = system: COLO 205 colon
[19] = system: UACC-257 melanoma
[20] = system: A549 NSCLC
[21] = system: CCRF-CEM leukemia
[22] = system: MALME-3M melanoma
[23] = system: OVCAR-5 ovarian
[24] = system: SNB-75 CNS
[25] = system: 786-0 renal
[26] = system: K-562 leukemia
[27] = system: SF-268 CNS
[28] = system: SF-295 CNS
[29] = system: RPMI-8226 leukemia
[30] = system: MDA-MB-435
[31] = system: NCI/ADR-RES ovarian
[32] = system: SR leukemia
[33] = system: NCI-H23 lung
[34] = system: SK-OV-3 ovarian
[35] = system: SK-MEL-5 melanoma
[36] = system: MOLT-4 leukemia
[37] = system: U251 CNS
[38] = system: UACC-62 melanoma
[39] = system: SNB-19 CNS
[40] = system: OVCAR-3 ovarian
[41] = system: HS 578T breast
[42] = system: HCT-116 colon
[43] = system: MCF7 breast
[44] = system: NCI-H226 lung
[45] = system: M14 melanoma
[46] = system: SN12C renal
[47] = system: EKVX NSCLC
[48] = system: OVCAR-8 ovarian
[49] = system: IGROV1 ovarian
[50] = system: KM12 colon
[51] = system: HL-60(TB) leukemia
[52] = system: NCI-H460 lung
[53] = system: NCI-H522 lung
[54] = system: RXF 393 renal
[55] = system: SF-539 CNS
[56] = system: T-47D breast
[57] = system: CAKI-1 renal
[58] = system: HCC-2998 colon
[59] = system: BT-549 breast

Measured: TGI

CCOC(=O)Cc1c(C)c2ccc(OC(C)=O)c(OC(C)=O)c2oc1=O
71.7 µM: [33]
28.5 µM: [21]
64 µM: [2]
55.8 µM: [16]
96.1 µM: [27]
44.3 µM: [49]
90 µM: [38]
94.3 µM: [44]
91.3 µM: [15]
71.3 µM: [13]
58.4 µM: [31]
65.2 µM: [3]
51.1 µM: [19]
57.3 µM: [48]
73.9 µM: [11]
71.9 µM: [26]
77.1 µM: [43]
64.4 µM: [32]
88.6 µM: [24]
not listed: [51] | [52] | [53] | [54] | [55] | [56] | [57] | [58] | [59]
> 100 µM: all other assays above

CON(C)c1nc(N)c(C#N)c(C#N)c1C#N
not listed: [13] | [19] | [25] | [26] | [59]
> 10 µM: all other assays above

CC1=C(C(=O)NNC(=O)Cc2ccccc2)CC(C(=O)NNC(=O)Cc2ccccc2)=C(C)N1
not listed: [4] | [21] | [22] | [26] | [29] | [32] | [36] | [41] | [53]
> 100 µM: all other assays above

C[C@@H](C1CC[C@H]2[C@@H]3[C@@H]4O[C@@H]4[C@@]4(O)CC=CC(=O)[C@]4(C)[C@H]3C[C@H](O)[C@]12C)[C@H]1C[C@]2(C)O[C@]2(C)C(=O)O1 (some centres undefined)
not listed: [9] | [32] | [54] | [59]
> 100 µM: all other assays above
